In PubChem BioAssay (NCI):
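All cell lines were grown in 96-well plates and treated with compound for 48 hours. GI50 marks 50% less growth. TGI is the concentration that stops growth completely.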

Tests used:
Experiment in all cases: NCI tumour cell line growth inhibition, 48 h
HL-60(TB) leukemia = tested on: HL-60(TB) leukemia
HOP-92 NSCLC = tested on: HOP-92 NSCLC
HS 578T breast = tested on: HS 578T breast
SF-268 CNS = tested on: SF-268 CNS
SK-OV-3 ovarian = tested on: SK-OV-3 ovarian
786-0 renal = tested on: 786-0 renal
A498 renal = tested on: A498 renal
A549 NSCLC = tested on: A549 NSCLC
ACHN renal = tested on: ACHN renal
CAKI-1 renal = tested on: CAKI-1 renal
CCRF-CEM leukemia = tested on: CCRF-CEM leukemia
DU-145 prostate = tested on: DU-145 prostate
EKVX NSCLC = tested on: EKVX NSCLC
HCT-116 colon = tested on: HCT-116 colon
HCT-15 colon = tested on: HCT-15 colon
HOP-62 NSCLC = tested on: HOP-62 NSCLC
HT29 colon = tested on: HT29 colon
IGROV1 ovarian = tested on: IGROV1 ovarian
K-562 leukemia = tested on: K-562 leukemia
KM12 colon = tested on: KM12 colon
LOX IMVI melanoma = tested on: LOX IMVI melanoma
M14 melanoma = tested on: M14 melanoma
MCF7 breast = tested on: MCF7 breast
MDA-MB-231 breast = tested on: MDA-MB-231 breast
MOLT-4 leukemia = tested on: MOLT-4 leukemia
NCI-H23 lung = tested on: NCI-H23 lung
NCI-H460 lung = tested on: NCI-H460 lung
NCI-H522 lung = tested on: NCI-H522 lung
NCI/ADR-RES ovarian = tested on: NCI/ADR-RES ovarian
OVCAR-3 ovarian = tested on: OVCAR-3 ovarian
OVCAR-4 ovarian = tested on: OVCAR-4 ovarian
OVCAR-5 ovarian = tested on: OVCAR-5 ovarian
OVCAR-8 ovarian = tested on: OVCAR-8 ovarian
PC-3 prostate = tested on: PC-3 prostate
RPMI-8226 leukemia = tested on: RPMI-8226 leukemia
SF-295 CNS = tested on: SF-295 CNS
SF-539 CNS = tested on: SF-539 CNS
SK-MEL-28 melanoma = tested on: SK-MEL-28 melanoma
SK-MEL-5 melanoma = tested on: SK-MEL-5 melanoma
SNB-19 CNS = tested on: SNB-19 CNS
SR leukemia = tested on: SR leukemia
SW-620 colon = tested on: SW-620 colon
T-47D breast = tested on: T-47D breast
TK-10 renal = tested on: TK-10 renal
U251 CNS = tested on: U251 CNS
UACC-62 melanoma = tested on: UACC-62 melanoma
UO-31 renal = tested on: UO-31 renal
COLO 205 colon = tested on: COLO 205 colon
HCC-2998 colon = tested on: HCC-2998 colon
MALME-3M melanoma = tested on: MALME-3M melanoma
MDA-MB-435 = tested on: MDA-MB-435
NCI-H226 lung = tested on: NCI-H226 lung
RXF 393 renal = tested on: RXF 393 renal
SK-MEL-2 melanoma = tested on: SK-MEL-2 melanoma
SN12C renal = tested on: SN12C renal
SNB-75 CNS = tested on: SNB-75 CNS
UACC-257 melanoma = tested on: UACC-257 melanoma

CCCCCCCc1n(Cc2ccc3ccccc3c2)c2ccccc2[n+]1Cc1ccc2ccccc2c1
GI50 (HL-60(TB) leukemia): 0.186 µM | TGI (HL-60(TB) leukemia): 0.569 µM | GI50 (HOP-92 NSCLC): 0.163 µM | TGI (HOP-92 NSCLC): 0.67 µM | GI50 (HS 578T breast): 1.2 µM | TGI (HS 578T breast): 3.67 µM | GI50 (SF-268 CNS): 0.345 µM | TGI (SF-268 CNS): 1.49 µM | GI50 (SK-OV-3 ovarian): 0.87 µM | TGI (SK-OV-3 ovarian): 2.28 µM

CC(=O)O[C@H]1C(=O)[C@@]2(C)[C@H]([C@H](OC(=O)c3ccccc3)[C@]3(O)C[C@H](OC(=O)[C@H](O)[C@@H](NC(=O)c4ccco4)c4ccccc4)C(C)=C1C3(C)C)[C@]1(OC(C)=O)CO[C@@H]1C[C@@H]2O
TGI (786-0 renal): > 12.5 µM | TGI (A498 renal): > 12.5 µM | TGI (A549 NSCLC): > 12.5 µM | TGI (ACHN renal): > 12.5 µM | TGI (CAKI-1 renal): > 12.5 µM | TGI (CCRF-CEM leukemia): 0.0073 µM | TGI (DU-145 prostate): > 12.5 µM | TGI (EKVX NSCLC): > 12.5 µM | TGI (HCT-116 colon): > 12.5 µM | TGI (HCT-15 colon): > 12.5 µM | TGI (HL-60(TB) leukemia): < 0.00125 µM | TGI (HOP-62 NSCLC): > 12.5 µM | TGI (HS 578T breast): 0.00279 µM | TGI (HT29 colon): > 12.5 µM | TGI (IGROV1 ovarian): > 12.5 µM | TGI (K-562 leukemia): < 0.00125 µM | TGI (KM12 colon): > 12.5 µM | TGI (LOX IMVI melanoma): > 12.5 µM | TGI (M14 melanoma): > 12.5 µM | TGI (MCF7 breast): > 12.5 µM | TGI (MDA-MB-231 breast): > 12.5 µM | TGI (MOLT-4 leukemia): > 12.5 µM | TGI (NCI-H23 lung): > 12.5 µM | TGI (NCI-H460 lung): > 12.5 µM | TGI (NCI-H522 lung): > 12.5 µM | TGI (NCI/ADR-RES ovarian): > 7.75 µM | TGI (OVCAR-3 ovarian): 0.00548 µM | TGI (OVCAR-4 ovarian): > 12.5 µM | TGI (OVCAR-5 ovarian): > 12.5 µM | TGI (OVCAR-8 ovarian): > 12.5 µM | TGI (PC-3 prostate): > 12.5 µM | TGI (RPMI-8226 leukemia): < 0.00125 µM | TGI (SF-268 CNS): > 12.5 µM | TGI (SF-295 CNS): > 12.5 µM | TGI (SF-539 CNS): 0.00454 µM | TGI (SK-MEL-28 melanoma): > 12.5 µM | TGI (SK-MEL-5 melanoma): > 12.5 µM | TGI (SK-OV-3 ovarian): 0.0107 µM | TGI (SNB-19 CNS): > 12.5 µM | TGI (SR leukemia): > 12.5 µM | TGI (SW-620 colon): > 12.5 µM | TGI (T-47D breast): > 12.5 µM | TGI (TK-10 renal): > 12.5 µM | TGI (U251 CNS): > 12.5 µM | TGI (UACC-62 melanoma): > 12.5 µM | TGI (UO-31 renal): > 12.5 µM

O=C(CSCC(=O)N/N=C\c1cccc([N+](=O)[O-])c1)N/N=C\c1cccc([N+](=O)[O-])c1
TGI (786-0 renal): 63.6 µM | TGI (A498 renal): > 100 µM | TGI (A549 NSCLC): > 100 µM | TGI (ACHN renal): 33.7 µM | TGI (CAKI-1 renal): 64.4 µM | TGI (CCRF-CEM leukemia): > 100 µM | TGI (COLO 205 colon): > 100 µM | TGI (DU-145 prostate): > 100 µM | TGI (EKVX NSCLC): > 100 µM | TGI (HCC-2998 colon): > 100 µM | TGI (HCT-116 colon): > 100 µM | TGI (HCT-15 colon): 67.8 µM | TGI (HL-60(TB) leukemia): > 100 µM | TGI (HOP-62 NSCLC): 16.3 µM | TGI (HOP-92 NSCLC): > 100 µM | TGI (HS 578T breast): > 100 µM | TGI (HT29 colon): > 100 µM | TGI (IGROV1 ovarian): 68.7 µM | TGI (KM12 colon): > 100 µM | TGI (LOX IMVI melanoma): > 100 µM | TGI (M14 melanoma): > 100 µM | TGI (MALME-3M melanoma): 69.1 µM | TGI (MCF7 breast): > 100 µM | TGI (MDA-MB-231 breast): 53.8 µM | TGI (MDA-MB-435): > 100 µM | TGI (MOLT-4 leukemia): > 100 µM | TGI (NCI-H226 lung): > 100 µM | TGI (NCI-H23 lung): 31.1 µM | TGI (NCI-H460 lung): > 100 µM | TGI (NCI-H522 lung): > 100 µM | TGI (NCI/ADR-RES ovarian): 60 µM | TGI (OVCAR-3 ovarian): 84.1 µM | TGI (OVCAR-4 ovarian): > 100 µM | TGI (OVCAR-8 ovarian): > 100 µM | TGI (RPMI-8226 leukemia): > 100 µM | TGI (RXF 393 renal): > 100 µM | TGI (SF-268 CNS): > 100 µM | TGI (SF-295 CNS): 30.5 µM | TGI (SF-539 CNS): 84.7 µM | TGI (SK-MEL-2 melanoma): > 100 µM | TGI (SK-MEL-28 melanoma): > 100 µM | TGI (SK-MEL-5 melanoma): > 100 µM | TGI (SK-OV-3 ovarian): > 100 µM | TGI (SN12C renal): > 100 µM | TGI (SNB-19 CNS): > 100 µM | TGI (SNB-75 CNS): 65.6 µM | TGI (SR leukemia): > 100 µM | TGI (SW-620 colon): > 100 µM | TGI (T-47D breast): > 100 µM | TGI (TK-10 renal): 36.4 µM | TGI (U251 CNS): 32.4 µM | TGI (UACC-257 melanoma): > 100 µM | TGI (UACC-62 melanoma): > 100 µM | TGI (UO-31 renal): > 100 µM
